Seven molecules from PMC10299916, “A multi-enzyme machine polymerizes the Haemophilus influenzae type b capsule” (Nature Chemical Biology, 2023) can be followed below.

Assay [1] addresses T1, Bcs1 (Haemophilus influenzae, UniProt Q48230).
T1 construct: recombinant, E. coli M15; cloned in MBP-S3N10-...-His6 vector
Briefly: HPLC-AEC. To be noted: 5 mM, CTP, Mg2+, pH 8.0, 37 °C. It is filed as biochemical.

The target of assay [2] is T2, Bcs3 (Haemophilus influenzae, UniProt Q2ERG0).
T2 construct: full length, 1,215 residues; N-terminal MBP-S3N10 and C-terminal His6 fusion; E. coli M15
Kind of assay: HPLC-AEC and Alcian blue PAGE of polymer formation. It is filed as biochemical. The conditions noted are these: Mg2+, pH 8.0, 37 °C.

The target in assay [3] is T3, PrsA (Haemophilus influenzae, UniProt P44328).
T3 construct: gene prs; recombinant, E. coli M15; cloned in MBP-S3N10-...-His6 vector
Kind of assay: HPLC-AEC. Format: biochemical. To be noted: Mg2+, pH 8.0, 37 °C.

The target of assay [4] is Bcs3 crystallization construct MBP-Bcs3_(2–1162)-His6 after PreScission digest (Bcs3-His6) (Haemophilus influenzae serotype b (strain ATCC 10211)) (UniProt Q2ERG0). Kind of assay: crystal structure.

On to `O=C(CO)[C@H](O)[C@H](O)COP(=O)(O)O` [ribulose-5-phosphate], for which, in assay [1] (NADPH), the HPLC-AEC result is “presence of Bcs1 in a reaction containing ribulose-5-phosphate led to the consumption of NADPH”. With `NC(=O)C1=CN([C@@H]2O[C@H](COP(=O)(O)OP(=O)(O)OC[C@H]3O[C@@H](n4cnc5c(N)ncnc54)[C@H](OP(=O)(O)O)[C@@H]3O)[C@@H](O)[C@H]2O)C=CC1` [NADPH], the HPLC-AEC entry in assay [1] (ribulose-5-phosphate) is “presence of Bcs1 in a reaction containing ribulose-5-phosphate led to the consumption of NADPH”. `Nc1ccn([C@@H]2O[C@H](COP(=O)(O)OP(=O)(O)OC[C@@H](O)[C@@H](O)[C@@H](O)CO)[C@@H](O)[C@H]2O)c(=O)n1` [CDP-ribitol]: in assay [2] (generated in situ by RpiA and Bcs1, with PRPP, CroT donor), the “HPLC-AEC and Alcian blue PAGE of polymer formation” value was “CDP-ribitol was only used up in the presence of PRPP, with concomitant production of CMP”. For the molecule `O=P(O)(O)OC[C@H]1O[C@H](OP(=O)(O)OP(=O)(O)O)[C@H](O)[C@@H]1O` [PRPP, 5-phospho-α-D-ribose-1-diphosphate], the “HPLC-AEC and Alcian blue PAGE of polymer formation” value in assay [2] (5 mM, CDP-ribitol generated in situ by RpiA and Bcs1, CriT donor) is “Thus, we concluded that PRPP is the donor substrate for Bcs3”. `O=P(O)(O)OC[C@H]1OC(O)[C@H](O)[C@@H]1O` (stereo partly drawn) [D-ribose-5-phosphate]: the HPLC-AEC result in assay [3] (ATP) is “The reaction cascade (e, f) was started with (e) Rib or (f) Rib-5P”. A word on the stoichiometry N: it is the number of molecules, sites or subunits per partner or assembly. With “Bcs3 crystallization construct MBP-Bcs3_(2–1162)-His6 after PreScission digest (Bcs3-His6) (from UniProt Q2ERG0 2-1162) (enzyme)”, the stoichiometry N in assay [4] worked out at 2. Consider `Nc1ncnc2c1ncn2[C@@H]1O[C@H](COP(=O)(O)OP(=O)(O)OP(=O)(O)O)[C@@H](O)[C@H]1O` [ATP], for which, in assay [3] (ribose-5-phosphate), the HPLC-AEC result is “(c) PrsA using ATP, CTP or UTP as donor substrate”.
